From publication PMC8061427 (Science translational medicine, 2020)
Where “and” joins values, the source holds several entries; their conditions need not be identical. Identical values can stand only once. Where no end group is shown, it is not given here. The star is where a group is joined. Myristoyl = CCCCCCCCCCCCCC(=O)*

Tests used:
[1] = lipid micellar formulation; cited from earlier work
[2] = no reference given; cited from earlier work
C57BL/6 mice = test: FeCl3-induced mouse carotid artery thrombosis model; assay type: in vivo; conditions: for effect on occlusive thrombus formation: 7.5% FeCl3
mice [3] = test: Laser-induced cremaster arteriolar thrombosis model in mice; assay type: in vivo, mouse; conditions: pre-injected intravenously; M3mP6 HLPN 10 μmol/kg, cangrelor 30 μg/kg; 27 injury sites each
mice [4] = test: Mouse tail bleeding time test; conditions: cangrelor 30 μg/kg; for effect on mouse tail bleeding time: Fig. 5, M3mP6 HLPN 5 or 10 μmol/kg, high dose aspirin 36 mg/kg i.p., clopidogrel 4 mg/kg, ticagrelor 3 mg/kg

For Myristoyl-FEEERA [mP6], the “peptide concentration achieved in lipid micellar suspension” value [1] is given as 1 mM and < 1 mM.

In the case of CSCCNc1nc(SCCC(F)(F)F)nc2c1ncn2[C@@H]1O[C@H](COP(=O)(O)OP(=O)(O)C(Cl)(Cl)P(=O)(O)O)[C@@H](O)[C@H]1O [cangrelor], the plasma half-life [2] is listed as 3 to 6 min, the “overall effect on occlusive thrombosis” value (C57BL/6 mice; Fig. 4E, cangrelor 30 μg/kg retro-orbital, M3mP6 HLPN 10 μmol/kg) is listed as “moderately better than M3mP6 HLPN” and the “effect on platelet thrombus formation” value (mice [3]) is listed as “potently inhibiting platelet thrombus formation”. For the same compound, the “effect on mouse tail bleeding time” value (mice [4]) was “increased tail bleeding time” and the tail bleeding time (mice [4]; post-injury injection, M3mP6 HLPN 10 μmol/kg) was “prolonged tail bleeding time”.

In the case of COC(=O)[C@H](c1ccccc1Cl)N1CCc2sccc2C1 [clopidogrel], the “effect on occlusive thrombus formation” value (C57BL/6 mice; Fig. 4C, M3mP6 HLPN 10 μmol/kg, clopidogrel 4 mg/kg oral 2 hours before, ticagrelor 3 mg/kg oral 2 hours before) is reported as “delayed occlusive thrombus formation following FeCl3-induced injury but was less effective than M3mP6 HLPN”.

In the case of CC(=O)Oc1ccccc1C(=O)O [aspirin], the “effect on occlusive thrombus formation” value (C57BL/6 mice; Fig. 4B, M3mP6 HLPN 5 μmol/kg, aspirin 36 mg/kg i.p. 1 hour before) is reported as “no obvious effect” and the “effect on mouse tail bleeding time” value (mice [4]) is reported as “increased tail bleeding time”.

For CCCSc1nc(N[C@@H]2C[C@H]2c2ccc(F)c(F)c2)c2nnn([C@@H]3C[C@H](OCCO)[C@@H](O)[C@H]3O)c2n1 [ticagrelor], the “effect on mouse tail bleeding time” value (mice [4]) was “increased tail bleeding time”.
